# How the values were obtained:
# Test in all cases: Biochemical Assay
# [1] = molecular target: Homeodomain-interacting protein kinase 2 (Homo sapiens, UniProt Q9H2X6)
# Description: (§1) In vitro biochemical assays were performed in parallel to determine the most potent tool compound.
# Aurora kinase A = molecular target: T1, Aurora kinase A (Homo sapiens, UniProt O14965)
# T1 sequence (O14965 whole entry): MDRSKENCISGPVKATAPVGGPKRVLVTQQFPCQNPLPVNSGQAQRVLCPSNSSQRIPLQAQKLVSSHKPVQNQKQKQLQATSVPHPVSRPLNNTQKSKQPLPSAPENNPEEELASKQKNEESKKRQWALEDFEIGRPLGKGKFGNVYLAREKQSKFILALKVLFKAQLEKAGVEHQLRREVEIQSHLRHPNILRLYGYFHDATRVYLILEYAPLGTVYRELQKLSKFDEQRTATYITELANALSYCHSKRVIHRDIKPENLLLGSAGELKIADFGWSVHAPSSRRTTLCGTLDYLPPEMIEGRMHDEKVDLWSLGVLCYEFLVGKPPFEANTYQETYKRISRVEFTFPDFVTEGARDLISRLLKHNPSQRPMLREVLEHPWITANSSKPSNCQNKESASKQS
# Description: as §1
# Aurora kinase B = Aurora kinase B (Homo sapiens, UniProt Q96GD4)
# Description: as §1
# Aurora kinase C = molecular target: T2, Aurora kinase C (Homo sapiens, UniProt Q9UQB9)
# T2 sequence (Q9UQB9 whole entry): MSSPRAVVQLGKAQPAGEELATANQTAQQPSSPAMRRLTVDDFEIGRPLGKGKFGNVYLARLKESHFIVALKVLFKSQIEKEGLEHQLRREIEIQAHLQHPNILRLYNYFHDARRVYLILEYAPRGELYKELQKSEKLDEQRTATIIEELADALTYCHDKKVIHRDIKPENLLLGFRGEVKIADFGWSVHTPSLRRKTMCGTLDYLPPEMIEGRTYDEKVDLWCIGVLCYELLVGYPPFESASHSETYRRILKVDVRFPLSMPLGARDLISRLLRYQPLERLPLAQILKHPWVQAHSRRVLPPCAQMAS
# Description: as §1
# Sequence of Homeodomain-interacting protein kinase 2 (Q9H2X6 whole entry): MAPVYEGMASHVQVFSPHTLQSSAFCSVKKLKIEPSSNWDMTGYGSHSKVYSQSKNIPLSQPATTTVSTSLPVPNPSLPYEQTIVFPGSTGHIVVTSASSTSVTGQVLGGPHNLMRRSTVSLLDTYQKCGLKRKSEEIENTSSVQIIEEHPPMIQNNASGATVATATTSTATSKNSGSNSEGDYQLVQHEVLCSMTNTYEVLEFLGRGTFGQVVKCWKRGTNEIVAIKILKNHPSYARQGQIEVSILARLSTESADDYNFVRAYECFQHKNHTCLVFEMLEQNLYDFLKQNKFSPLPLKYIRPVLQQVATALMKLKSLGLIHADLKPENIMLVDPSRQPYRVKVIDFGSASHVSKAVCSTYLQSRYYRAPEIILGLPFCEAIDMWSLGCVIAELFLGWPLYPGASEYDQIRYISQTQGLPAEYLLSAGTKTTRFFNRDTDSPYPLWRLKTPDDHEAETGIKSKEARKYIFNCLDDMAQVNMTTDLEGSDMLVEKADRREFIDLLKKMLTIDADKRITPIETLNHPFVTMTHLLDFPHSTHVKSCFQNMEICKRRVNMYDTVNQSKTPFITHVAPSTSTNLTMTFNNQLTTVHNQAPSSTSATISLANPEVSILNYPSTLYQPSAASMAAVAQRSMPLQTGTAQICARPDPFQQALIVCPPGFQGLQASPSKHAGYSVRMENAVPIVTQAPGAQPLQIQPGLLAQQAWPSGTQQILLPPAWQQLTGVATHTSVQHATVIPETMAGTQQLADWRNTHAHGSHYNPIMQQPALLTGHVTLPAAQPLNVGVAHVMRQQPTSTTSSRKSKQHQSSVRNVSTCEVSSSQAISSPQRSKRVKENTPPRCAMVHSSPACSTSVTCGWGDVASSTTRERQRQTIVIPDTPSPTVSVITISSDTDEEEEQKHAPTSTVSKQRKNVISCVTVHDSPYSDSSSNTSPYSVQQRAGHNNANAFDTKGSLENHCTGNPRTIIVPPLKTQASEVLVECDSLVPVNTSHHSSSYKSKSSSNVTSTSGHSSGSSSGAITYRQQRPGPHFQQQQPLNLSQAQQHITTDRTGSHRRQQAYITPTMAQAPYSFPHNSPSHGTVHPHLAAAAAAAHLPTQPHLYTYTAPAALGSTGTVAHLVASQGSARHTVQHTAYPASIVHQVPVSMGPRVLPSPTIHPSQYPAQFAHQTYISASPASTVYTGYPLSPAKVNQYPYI
# Sequence of Aurora kinase B (Q96GD4 whole entry): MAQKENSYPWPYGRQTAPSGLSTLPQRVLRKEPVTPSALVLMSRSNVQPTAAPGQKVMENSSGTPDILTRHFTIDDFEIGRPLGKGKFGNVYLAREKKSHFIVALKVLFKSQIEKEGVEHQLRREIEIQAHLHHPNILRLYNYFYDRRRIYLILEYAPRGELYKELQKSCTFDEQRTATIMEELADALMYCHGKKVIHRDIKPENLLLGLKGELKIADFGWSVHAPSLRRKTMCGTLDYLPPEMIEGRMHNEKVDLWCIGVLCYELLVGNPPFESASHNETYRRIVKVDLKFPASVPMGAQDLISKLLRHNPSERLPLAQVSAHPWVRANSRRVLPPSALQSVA
Structure (SMILES),IC50 [1] [nM],Kd [1] [nM],IC50 (Aurora kinase A) [nM],IC50 (Aurora kinase B) [nM],IC50 (Aurora kinase C) [nM]
"N=C1NC(=O)/C(=C\c2c[nH]c(=O)c(-c3ccc(N4CCNCC4)nc3)c2)S1 [Furan thiazolidinediones, A64]",74,9.5,–,–,–
"CN1C(=O)c2ccccc2N(C)c2nc(Nc3ccc(N4CCC(O)CC4)cc3)ncc21 [Benzo[e]pyrimido[5,4-b][1,4]diazepin-6(11H)-one, 1]",–,–,8,24,41
